Laboratory results from article PMC12120022, “Discovery and chemical optimisation of a potent, Bi-cyclic antimicrobial inhibitor of Escherichia coli PBP3” (Communications Biology, 2025).
Where a SMILES comes first, the peptide text is derived from it.

Experiments:
EcPBP3 [1] = target: T1, EcPBP3 (Escherichia coli, UniProt P0AD68); assay: Fluorescence polarisation competition assay with fluorescent Bicycle tracer (tracer 1 / BCY12820); assay type: binding; conditions: protein 9.4 nM sets sensitivity limit, top concentration 5 µM, read-out: Ki (nM) by fluorescence polarisation with tracer 1 (BCY12820 as tracer), Geometric mean (Lower 95% CI; Upper 95% CI, n=number of values)
T1 construct: For assays, selections and SPR a construct with residues 60–588 which has the N-terminal domain, but not the transmembrane helix, was used; made in house
T1 sequence (P0AD68 60-588): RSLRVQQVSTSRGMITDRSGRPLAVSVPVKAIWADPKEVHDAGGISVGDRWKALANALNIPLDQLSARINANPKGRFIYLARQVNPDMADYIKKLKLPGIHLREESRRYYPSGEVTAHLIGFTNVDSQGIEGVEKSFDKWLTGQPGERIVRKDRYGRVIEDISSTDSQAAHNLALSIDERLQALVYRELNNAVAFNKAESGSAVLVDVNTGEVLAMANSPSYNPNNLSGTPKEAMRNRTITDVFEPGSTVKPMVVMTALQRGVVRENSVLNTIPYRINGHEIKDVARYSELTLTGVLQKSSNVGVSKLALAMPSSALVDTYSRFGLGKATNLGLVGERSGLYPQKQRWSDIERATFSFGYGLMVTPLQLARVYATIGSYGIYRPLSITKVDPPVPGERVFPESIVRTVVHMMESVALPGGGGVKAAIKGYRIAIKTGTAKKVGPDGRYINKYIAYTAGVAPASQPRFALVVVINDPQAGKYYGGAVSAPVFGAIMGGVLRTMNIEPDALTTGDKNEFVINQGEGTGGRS
Protocol: Competition fluorescence polarisation assays were run by observing the fluorescence polarisation of a fluorescent “tracer” Bicycle molecule which competes against an unlabelled peptide for binding to the EcPBP3 target. 10 µL of protein (9.4 nM) was mixed with either 5 µL of peptide or 5 µL of buffer and then the assay was initiated by the addition of 10 µL of tracer (1 nM) (final volume 25 µL), in a black 384 low bind, low volume plate (Corning). The buffer was 10 mM HEPES (Sigma), 2% (v/v) glycerol (Sigma), 300 mM NaCl (Sigma), adjusted to pH 8. The plate was incubated for 1 h at 25 °C and then read in a PHERAstar FS (BMG) using with an “FP 485 520 520” optic module (excitation 485 nm, emission 520 nm). The gain was determined immediately prior to the read on a tracer-only well.
Dotmatics (Dotmatics) workflows performing the above calculations were used to process the data. Values quoted are the geometric means of at least 2 repeats.

EcPBP3 [2] = target: T1, EcPBP3; assay: SPR binding assay on immobilised EcPBP3; conditions: 37 °C, kinetic fitting, NB = no binding at 2500 nM (Tables S-4, S-5) or 5000 nM (Table 1); for Kd: read-out: Kd (nM) by SPR (geomean)
Protocol: Surface plasmon resonance (SPR) assays were performed using EcPBP3 immobilized on CM5 sensor chips (GE Healthcare) via amine-coupling chemistry in assay buffer (10 mM HEPES pH 8.0, 200 mM NaCl, 0.05% (v/v) surfactant P20). The chip surface was activated by injection (10 μL min^–1) of 0.4 M EDC and 0.1 M NHS (in a 1:1 ratio) with a 7 min contact time. Protein was diluted to 25 μg mL^–1 in 10 mM MOPS (pH 7.0) and injected over the activated sensor chip surface to reach immobilization of 1500-2500 response units. Excess hydroxysuccinimidyl groups on the chip surface were deactivated by injection (10 μL min^–1) of 1 M ethanolamine hydrochloride pH 8.0 with a 7 min contact time. Reference flow cells were prepared as described, but without ligand (EcPBP3 protein).
Binding analysis runs were performed at 37 °C in running buffer (10 mM HEPES pH 8.0, 200 mM NaCl, 0.05% (w/v) Tween-20, 2% (v/v) DMSO). Test compounds (and control runs of buffer only) were injected in running buffer over the EcPBP3 chip and reference flow cell, at flow rate of 50 μL min^–1 for 150 s contact time and 2400 s dissociation time. Each injection was followed by a wash with 50% (v/v) DMSO. All compounds were tested in at least two independent biological replicates unless otherwise stated.
Raw sensorgrams data were solvent-corrected, reference-subtracted and blank-buffer-subtracted (double-referencing) before kinetic and affinity analysis to account for non-specific binding and injection artifacts. Equilibrium dissociation constant (Kd) values was determined using the Biacore™ Insight Evaluation Software (version 4.0.8 or version 5.0.17) using kinetic fitting. Kd values presented are the geometric mean of at least two biological replicates.

SMILES	Ki (EcPBP3 [1]) [nM]	Kd (EcPBP3 [2]) [nM]	Kd (nM) by SPR (geomean) (EcPBP3 [2])
C[C@H](N)C(=O)N[C@H]1CSCCC(=O)N2CN3CN(C2)C(=O)CCSC[C@H](NC(=O)[C@H](CCCCN)NC(=O)[C@@H]2CCCN2C(=O)[C@H](Cc2ccccc2)NC(=O)[C@H](CO)NC1=O)C(=O)N1CCC[C@H]1C(=O)N[C@@H](Cc1c[nH]c2ccccc12)C(=O)N[C@@H](C)C(=O)N[C@@H](CCC(=O)O)C(=O)NCC(=O)N[C@H](C(=O)N[C@@H](C)C(N)=O)CSCCC3=O [Peptide 22] (HELM PEPTIDE1{A.C.S.F.P.K.C.P.W.A.E.G.C.A.[am]}|CHEM1{[O=C(CC[*:1])N1CN(C(=O)CC[*:2])CN(C(=O)CC[*:3])C1]}$PEPTIDE1,CHEM1,2:R3-1:R1|PEPTIDE1,CHEM1,7:R3-1:R2|PEPTIDE1,CHEM1,13:R3-1:R3$$$V2.0)	> 5000	669	–
CC(C)[C@@H]1NC(=O)[C@H](Cc2c[nH]c3ccccc23)NC(=O)[C@@H]2CCCN2C(=O)[C@@H]2CSCCC(=O)N3CN(CN(C3)C(=O)CCSC[C@H](NC(=O)[C@H](C)N)C(=O)N[C@@H](CO)C(=O)N[C@@H](Cc3ccccc3)C(=O)N3CCC[C@H]3C(=O)N[C@@H](CCCCN)C(=O)N2)C(=O)CCSC[C@@H](C(=O)N[C@@H](C)C(N)=O)NC(=O)CNC(=O)[C@H](C)NC1=O [Peptide 23]	9.08	6.71	–
CC(C)[C@@H]1NC(=O)[C@H](Cc2c[nH]c3ccccc23)NC(=O)[C@@H]2CCCN2C(=O)[C@@H]2CSCCC(=O)N3CN(CN(C3)C(=O)CCSC[C@H](NC(=O)[C@H](C)N)C(=O)N[C@@H](CO)C(=O)N[C@@H](Cc3ccccc3)C(=O)N[C@@H](C)C(=O)N[C@@H](CCCCN)C(=O)N2)C(=O)CCSC[C@@H](C(=O)N[C@@H](C)C(N)=O)NC(=O)CNC(=O)[C@H](CCC(=O)O)NC1=O [Peptide 18]	76.9	178	–
CC(C)[C@@H]1NC(=O)[C@H](C)NC(=O)[C@@H]2CCCN2C(=O)[C@@H]2CSCCC(=O)N3CN(CN(C3)C(=O)CCSC[C@H](NC(=O)[C@H](C)N)C(=O)N[C@@H](CO)C(=O)N[C@@H](Cc3ccccc3)C(=O)N3CCC[C@H]3C(=O)N[C@@H](CCCCN)C(=O)N2)C(=O)CCSC[C@@H](C(=O)N[C@@H](C)C(N)=O)NC(=O)CNC(=O)[C@H](CCC(=O)O)NC1=O [Peptide 21] (HELM PEPTIDE1{A.C.S.F.P.K.C.P.A.V.E.G.C.A.[am]}|CHEM1{[O=C(CC[*:1])N1CN(C(=O)CC[*:2])CN(C(=O)CC[*:3])C1]}$PEPTIDE1,CHEM1,2:R3-1:R1|PEPTIDE1,CHEM1,7:R3-1:R2|PEPTIDE1,CHEM1,13:R3-1:R3$$$V2.0)	> 5000	> 2500	–
CC(C)[C@@H]1NC(=O)[C@H](Cc2c[nH]c3ccccc23)NC(=O)[C@@H]2CCCN2C(=O)[C@@H]2CSCCC(=O)N3CN(CN(C3)C(=O)CCSC[C@H](NC(=O)[C@H](C)N)C(=O)N[C@@H](C)C(=O)N[C@@H](Cc3ccccc3)C(=O)N3CCC[C@H]3C(=O)N[C@@H](CCCCN)C(=O)N2)C(=O)CCSC[C@@H](C(=O)N[C@@H](C)C(N)=O)NC(=O)CNC(=O)[C@H](CCC(=O)O)NC1=O [Peptide 16] (HELM PEPTIDE1{A.C.A.F.P.K.C.P.W.V.E.G.C.A.[am]}|CHEM1{[O=C(CC[*:1])N1CN(C(=O)CC[*:2])CN(C(=O)CC[*:3])C1]}$PEPTIDE1,CHEM1,2:R3-1:R1|PEPTIDE1,CHEM1,7:R3-1:R2|PEPTIDE1,CHEM1,13:R3-1:R3$$$V2.0)	< 9	6.44	–
CC(C)[C@@H]1NC(=O)[C@H](Cc2c[nH]c3ccccc23)NC(=O)[C@@H]2CCCN2C(=O)[C@@H]2CSCCC(=O)N3CN(CN(C3)C(=O)CCSC[C@H](NC(=O)[C@H](C)N)C(=O)N[C@@H](CO)C(=O)N[C@@H](Cc3ccccc3)C(=O)N3CCC[C@H]3C(=O)N[C@@H](CCCCNC(=N)N)C(=O)N2)C(=O)CCSC[C@@H](C(=O)N[C@@H](C)C(N)=O)NC(=O)CNC(=O)[C@H](CCC(=O)O)NC1=O [Peptide 25]	< 9	2.85	no loss in binding or MIC
